In paper PMC12668308, “A Novel Antimalarial Agent that Inhibits Protein Synthesis in Plasmodium falciparum” (Angewandte Chemie (International Ed. in English), 2025):
Where two headings read alike, the source gives them in different places.

Key:
[1] = tested on: NF54/iGP1_RE9H^ulg8 stage V gametocytes; assay: Dose-response assay on gametocytes, MitoTracker-based readout; format: cell-based, Plasmodium falciparum
From the text: Compound 31 was also found to be active against the sexual stage of P. falciparum using the MitoTracker‐based readout. This readout is based on quantifying MitoTracker‐based gametocyte viability as recently described.^[ [7] ^] Briefly, high content imaging of MitoTracker‐ and Hoechst‐stained cells and automated image analysis using the MetaXpress software was used to determine the number of viable gametocytes based on mitochondrial activity and cellular shape.
Sexual commitment was induced in the NF54/iGP1_RE9H^ulg8 parasite line as described in ^[18,^52]. Synchronous ring stage cultures at 2-3% parasitemia (8-16 hpi) were grown for 48 hours in a culture medium lacking D-(+)-glucosamine hydrochloride (GlcN) and containing 1.25 µM Shield-1 to induce GDV1-GFP-DD expression. The induction medium was replaced with standard culture medium containing 50 mM N-acetyl-glucosamine (GlcNAc) for six consecutive days.) to selectively kill asexual parasites.^[53^,54^] Gametocytes were maintained in standard culture medium from day 7 onwards. During the first seven days of gametocyte development, the culture medium was exchanged daily and every second day subsequently. Visual inspection of Hemacolor-stained thin blood smears with a 100x immersion oil objective (total magnification = 1000x) was performed to assess gametocytemia.
Dose response assays were performed in biological triplicates, each in technical duplicate, as described in ^[18, ^55]. Synchronous NF54/iGP1_RE9H^ulg8 gametocyte cultures were resuspended at ~2% gametocytemia in an assay medium at 3% haematocrit. […] MitoTracker-based gametocyte viability was quantified using a modified version of published protocols.^[56^,57^] […] After imaging two technical replicates, the results were averaged and normalized to the plateau of sub-lethal compound concentrations using the “first mean in each data set” function and IC50 values were calculated using nonlinear, four parameter (variable slope) curve fitting in GraphPad Prism (version 8.3.0).

[2] = molecular target: Phosphatidylinositol 4-kinase (W7K9N9) (Plasmodium falciparum, UniProt W7K9N9); assay: iSPP profiling, P. falciparum lysate; format: binding; details: 100 µM compound 34
Method: (§1) P. falciparum NF54 lysates were extracted as described in ^[26^] . The parasite asynchronous culture was extracted once 3-5% parasitemia was reached. Saponin lysis was done as described in 2.2.10. Once the parasite pellet was obtained, 2.5 volumes of ice-cold lysis buffer (50 mM Tris/HCl pH 7.5 (Avantor), 5% glycerol (Sigma-Aldrich), 150 mM NaCl (Carl Roth), 1.5 mM MgCl2 (Sigma-Aldrich), 1 mM DTT (Carl Roth), 0.8% IGEPAL CA-630 (Sigma-Aldrich), 1X Halt Protease and Phosphatase Inhibitor-Cocktails EDTA-free (Thermo Fisher Scientific)) was added to the parasite pellet. The lysate solution was subjected to three cycles of flash freeze-thaw with liquid nitrogen and ddH2O at RT. The lysates were centrifuged at 20,000 g for 20 minutes at 4 °C. The soluble protein fraction (supernatant) was collected and the protein content was quantified using the BCA assay (Pierce™ BCA Protein Assay Kit, Thermo Fisher Scientific). The lysate was stored at -80 °C until further use.
(§2) The P. falciparum lysate was thawed on ice and diluted to 0.8 mg/mL. The lysate was aliquoted, and each aliquot was incubated with either a vehicle control (DMSO), 34 (dissolved in DMSO), or varying concentrations of 31 (dissolved in DMSO) at 0.01 µM, 0.1 µM, 10 µM, 50 µM, and 100 µM. Subsequently, the samples were incubated at room temperature for 30 minutes using a rotating mixer. After distribution into a 96-well plate, the samples were treated with increasing concentrations of A.E.A. (v/v) ranging from 14% to 28% (14, 16, 18, 20, 22, 24, 26, and 28%). Following a 20-minute incubation at 37°C with shaking at 750 rpm, the samples were centrifuged at 4400 g for 35 minutes to remove precipitated proteins. The soluble fractions were then pooled in equal volumes into a single sample using the Bravo Automated Liquid Handling Platform. […]
(§3) The raw LFQ-DIA intensity values of biological replicates across all conditions were normalized to the median abundance using Excel. […] Dose-dependent curves were generated using normalized protein intensity values, expressed as a ratio to the vehicle control. […]

[3] = tested on: 3-hydroxyacyl-[acyl-carrier-protein] dehydratase (W7K0B9); assay: iSPP profiling, P. falciparum lysate; format: binding; details: 100 µM compound 34
Method: as §1, §2, §3

Sequence of Phosphatidylinositol 4-kinase (W7K9N9) (W7K9N9 entry or part of it): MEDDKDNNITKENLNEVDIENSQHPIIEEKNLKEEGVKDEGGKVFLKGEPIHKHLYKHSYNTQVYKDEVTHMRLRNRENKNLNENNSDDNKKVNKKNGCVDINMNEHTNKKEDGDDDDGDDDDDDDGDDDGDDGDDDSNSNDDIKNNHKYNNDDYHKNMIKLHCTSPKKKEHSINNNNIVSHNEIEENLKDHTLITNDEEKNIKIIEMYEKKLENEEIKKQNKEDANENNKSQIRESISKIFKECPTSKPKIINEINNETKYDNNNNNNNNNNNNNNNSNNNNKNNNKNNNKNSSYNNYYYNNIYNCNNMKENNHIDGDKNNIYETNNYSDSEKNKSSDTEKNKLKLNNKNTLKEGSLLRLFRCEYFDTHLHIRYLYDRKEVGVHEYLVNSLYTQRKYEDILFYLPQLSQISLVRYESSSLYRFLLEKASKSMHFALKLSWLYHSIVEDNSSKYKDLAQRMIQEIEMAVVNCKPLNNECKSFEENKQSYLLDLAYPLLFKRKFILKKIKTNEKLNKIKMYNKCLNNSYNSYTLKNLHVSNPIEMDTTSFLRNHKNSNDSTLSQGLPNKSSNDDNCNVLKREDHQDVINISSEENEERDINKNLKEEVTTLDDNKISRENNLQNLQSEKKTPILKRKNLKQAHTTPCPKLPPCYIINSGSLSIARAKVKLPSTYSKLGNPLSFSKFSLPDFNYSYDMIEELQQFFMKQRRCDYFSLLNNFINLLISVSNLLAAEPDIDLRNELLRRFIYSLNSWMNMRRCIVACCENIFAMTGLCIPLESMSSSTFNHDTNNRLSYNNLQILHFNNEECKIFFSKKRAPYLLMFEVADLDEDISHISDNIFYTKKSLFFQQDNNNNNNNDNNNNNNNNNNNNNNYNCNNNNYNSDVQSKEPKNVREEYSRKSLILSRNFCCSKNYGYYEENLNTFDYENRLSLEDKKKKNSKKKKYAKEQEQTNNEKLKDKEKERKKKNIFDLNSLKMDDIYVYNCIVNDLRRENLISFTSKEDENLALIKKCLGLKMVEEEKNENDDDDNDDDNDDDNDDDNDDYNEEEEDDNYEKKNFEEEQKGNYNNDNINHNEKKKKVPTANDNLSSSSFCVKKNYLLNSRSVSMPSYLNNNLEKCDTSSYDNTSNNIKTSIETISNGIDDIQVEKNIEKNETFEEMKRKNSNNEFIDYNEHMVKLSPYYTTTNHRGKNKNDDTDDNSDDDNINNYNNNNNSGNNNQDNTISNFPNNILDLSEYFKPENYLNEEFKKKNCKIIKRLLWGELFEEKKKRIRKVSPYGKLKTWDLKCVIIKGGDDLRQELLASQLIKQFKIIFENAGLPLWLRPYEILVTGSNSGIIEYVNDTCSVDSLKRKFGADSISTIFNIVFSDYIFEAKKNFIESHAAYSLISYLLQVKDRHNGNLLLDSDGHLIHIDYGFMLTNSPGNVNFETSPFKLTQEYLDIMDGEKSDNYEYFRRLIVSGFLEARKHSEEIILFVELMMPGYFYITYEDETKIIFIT

SMILES | IC50 ([1]; Plasmodium falciparum, NF54, 72 h, read-out: IC50 mature (stage V) gametocytes, 72 h exposure, MitoTracker readout, N = 3) [nM] | IC50 ([1]; read-out: IC50 mature (stage V) gametocytes, 72 h exposure, MitoTracker readout, N = 3) [nM] | fold reduction in activity against the sexual stages compared to the asexual stage ([1]; stage V gametocytes vs NF54 asexual) [fold] | log2FC [2] | log2FC [3]
CN1CCN(Cc2ccc(O)c(NC(=O)c3cccc(Oc4cc(C(F)(F)F)ccn4)c3)c2)CC1 [Compound 31, N-(2-hydroxy-5-((4-methylpiperazin-1-yl)methyl)phenyl)-3-((4-(trifluoromethyl)pyridin-2-yl)oxy)benzamide] | 354 | < 500 | 91 | – | –
O=C(Nc1cc(CN2CCOCC2)ccc1F)c1cccc(Oc2cc(C(F)(F)F)ccn2)c1 [Compound 34, N-(2-Fluoro-5-(morpholinomethyl)phenyl)-3-((4-(trifluoromethyl)pyridin-2-yl)oxy)benzamide] | – | – | – | 0.5024 | 0.431
